According to PubChem BioAssay AID1963853 (Molecular Pharmacology Branch, DTP, NCI, 2024):

Test system: 266295-075-R-J1-PDC spheroid viability
Test: Anticancer human tumor 266295-075-R-J1-PDC patient-derived head and neck squamous carcinoma cell line growth inhibition [POLQ]
Settings: spheroids with HUVEC and MSC; for IC50: curve of first compound; for viability, T/C: stronger effect = lower value
Procedure: Multicellular complex tumor spheroid response to Polymerase (POL) inhibitors (novobiocin, ART-558, RP6685) in combination with a variety of drugs and investigational agents in selected tumor cell lines
The POL inhibitors (novobiocin, ART-558, and RP6685) were evaluated both individually and in combination with standard of care and investigational anticancer small molecules within a complex spheroid model of solid tumors. . Complex spheroids include a stromal component modeled by human endothelial cells (HUVEC) and fibroblasts modeled by human mesenchymal stem cells (MSCs). The concentration ranges selected for each drug and investigational agent were based upon clinically achievable concentrations if the clinical Cmax of the agent was known.
Compounds. The drugs and investigational agents: novobiocin (NSC847541), ART-558 (NSC835418), RP-6685 (NSC848927), peposertib (NSC802822), ceralasertib (NSC780249), elimusertib (NSC800525), camonsertib (NSC841442), AZD-1390 (NSC803789), olaparib (NSC753686), talazoparib (NSC767125), rucaparib (NSC756644), sotorasib (NSC818433), MRTX-1133 (NSC836407), SN-38 (NSC673596), topotecan (NSC609699), epotoside (NSC141540), doxorubicin (NSC123127), gemcitabine (NSC613327), 5-fluorouracil (NSC19893), paclitaxel (NSC125973), vemurafenib (NSC761431), MSA-2 (NSC828583), SN-011 (NSC837082), adavosertib (NSC754352), prexasertib (NSC758257), carboplatin (NSC241240) and oxaliplatin (NSC266046), were obtained from the National Cancer Institute (NCI) Developmental Therapeutics Program Chemical Repository (21). The FDA-approved anticancer drug set is available from the Developmental Therapeutics Program at https://dtp.cancer.gov/organization/dscb/obtaining/. […] The stock solutions were prepared in dimethyl sulfoxide (DMSO, Sigma-Aldrich, St. Louis, MO, cat. D2650), except for the platinum compounds which were prepared in saline (Quality Biological, Gaithersburg, MD, cat. 114-055-101), at 800-fold the tested concentration and stored at -70 degrees C prior to their use. All drugs and investigational agents were tested over a range starting from a high concentration at or near the clinical Cmax and decreasing in half-log increments. If the clinical Cmax for an agent had not been determined, the highest concentration tested was 10 microM, except for SN-38, which was tested at a high concentration of 1 microM.
Cell Culture. All cells were maintained in an incubator at 37 degrees C and 5% CO2 with 95% humidity. The PDC lines were cultured according to standard operating procedures established by the NCI PDMR (https://pdmr.cancer.gov). Table 3 of the manuscript, lists the cell lines along with the number of the three cell types plated to form the mct-spheroids and media for tumor cell growth. After thawing, all PDC lines, except 997537-175-T-J1-PDC and 415267-285-R-J2-PDC, were cultured in Matrigel-coated flasks prepared with a working solution of 1X Ham's F-12 nutrient mix, without supplementation (Thermo Fisher Scientific, cat. 11765054), 100 U/mL penicillin-streptomycin (Thermo Fisher Scientific, cat. 15140122), and 2.5% Matrigel (Corning Inc., Corning, NY, cat. 354248) for the first three passages. The two PDC lines 997537-175-T-J1-PDC and 415267-285-R-J2-PDC were cultured on uncoated flasks. The 857933-349-R-J2-PDC line was cultured in 6C/Colon 1B media containing advanced DMEM/F-12 (Thermo Fisher Scientific, cat. 12634028), 10 mM HEPES (Thermo Fisher Scientific, cat. 15630080), 1X GlutaMAX supplement (Thermo Fisher Scientific, cat. 35050061), 0.1 mg/mL primocin (InvivoGen, San Diego, CA, cat. ant-pm-2), 10% defined fetal bovine serum, heat inactivated (HyClone Laboratories Inc., Logan, UT, cat. SH30070.03HI), 50% L-WRN conditioned media (ATCC, cat. CRL-3276), 1.25 mM N-Acetyl-L-cysteine (Sigma-Aldrich, cat. A9165), 10 mM nicotinamide (Sigma-Aldrich, cat. N0636), 1X B-27 supplement (Thermo Fisher Scientific, cat. 17504044), 1X N-2 supplement (Thermo Fisher Scientific, cat. […]

[1] = second compound 0.0316 µM, first compound 0.0316 µM
[2] = second compound 0.0316 µM, first compound 0.1 µM
[3] = second compound 0.0316 µM, first compound 0.316 µM
[4] = second compound 0.0316 µM, first compound 1 µM
[5] = second compound 0.0316 µM, first compound 3.16 µM
[6] = second compound 0.0316 µM, first compound 10 µM
[7] = second compound 0.1 µM, first compound 0.0316 µM
[8] = second compound 0.1 µM, first compound 0.1 µM
[9] = second compound 0.1 µM, first compound 0.316 µM
[10] = second compound 0.1 µM, first compound 1 µM
[11] = second compound 0.1 µM, first compound 3.16 µM
[12] = second compound 0.1 µM, first compound 10 µM
[13] = second compound 0.316 µM, first compound 0.0316 µM
[14] = second compound 0.316 µM, first compound 0.1 µM
[15] = second compound 0.316 µM, first compound 0.316 µM
[16] = second compound 0.316 µM, first compound 1 µM
[17] = second compound 0.316 µM, first compound 3.16 µM
[18] = second compound 0.316 µM, first compound 10 µM
[19] = second compound 1 µM, first compound 0.0316 µM
[20] = second compound 1 µM, first compound 0.1 µM
[21] = second compound 1 µM, first compound 0.316 µM
[22] = second compound 1 µM, first compound 1 µM
[23] = second compound 1 µM, first compound 3.16 µM
[24] = second compound 1 µM, first compound 10 µM
[25] = second compound 3.16 µM, first compound 0.0316 µM
[26] = second compound 3.16 µM, first compound 0.1 µM
[27] = second compound 3.16 µM, first compound 0.316 µM
[28] = second compound 3.16 µM, first compound 1 µM
[29] = second compound 3.16 µM, first compound 3.16 µM
[30] = second compound 3.16 µM, first compound 10 µM
[31] = second compound 10 µM, first compound 0.0316 µM
[32] = second compound 10 µM, first compound 0.1 µM
[33] = second compound 10 µM, first compound 0.316 µM
[34] = second compound 10 µM, first compound 1 µM
[35] = second compound 10 µM, first compound 3.16 µM
[36] = second compound 10 µM, first compound 10 µM
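Note: spheroids exposed to compounds for seven days before readout.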

Structure (SMILES): CC1COCCN1c1cc(-c2ccnn2C)c2ccnc(-c3ccn[nH]3)c2n1 (centres undefined) + Nc1ccc(C#CCN(C(=O)Cc2ncc(C(F)(F)F)cc2C(F)(F)F)c2ccc(F)cc2)nn1
- IC50 (second compound 0.0316 µM): 3040 nM
- IC50 (second compound 0.1 µM): 2550 nM
- IC50 (second compound 0.316 µM): 284 nM
- IC50 (second compound 1 µM): 1290 nM
- IC50 (second compound 3.16 µM): 2020 nM
- IC50 (second compound 10 µM): 1140 nM
- viability, T/C [1]: 92.3%
- viability, T/C [2]: 73.2%
- viability, T/C [3]: 78%
- viability, T/C [4]: 63.6%
- viability, T/C [5]: 46.9%
- viability, T/C [6]: 36.5%
- viability, T/C [7]: 92.1%
- viability, T/C [8]: 84.4%
- viability, T/C [9]: 69.1%
- viability, T/C [10]: 57.5%
- viability, T/C [11]: 52.2%
- viability, T/C [12]: 34.3%
- viability, T/C [13]: 90.2%
- viability, T/C [14]: 86.1%
- viability, T/C [15]: 44.8%
- viability, T/C [16]: 55.6%
- viability, T/C [17]: 42.3%
- viability, T/C [18]: 42.5%
- viability, T/C [19]: 85%
- viability, T/C [20]: 76.3%
- viability, T/C [21]: 59.1%
- viability, T/C [22]: 52.1%
- viability, T/C [23]: 46.2%
- viability, T/C [24]: 26.8%
- viability, T/C [25]: 103%
- viability, T/C [26]: 83.8%
- viability, T/C [27]: 74%
- viability, T/C [28]: 60.7%
- viability, T/C [29]: 43.1%
- viability, T/C [30]: 30.7%
- viability, T/C [31]: 97.2%
- viability, T/C [32]: 91.9%
- viability, T/C [33]: 69.5%
- viability, T/C [34]: 54.7%
- viability, T/C [35]: 35.8%
- viability, T/C [36]: 35.6%

Structure (SMILES): CNCc1ccc(-c2[nH]c3cc(F)cc4c3c2CCNC4=O)cc1 + Nc1ccc(C#CCN(C(=O)Cc2ncc(C(F)(F)F)cc2C(F)(F)F)c2ccc(F)cc2)nn1
- IC50 (second compound 0.0316 µM): > 10000 nM
- IC50 (second compound 0.1 µM): > 10000 nM
- IC50 (second compound 0.316 µM): > 10000 nM
- IC50 (second compound 1 µM): > 10000 nM
- IC50 (second compound 3.16 µM): > 10000 nM
- IC50 (second compound 10 µM): > 10000 nM
- viability, T/C [1]: 98.8%
- viability, T/C [2]: 89.6%
- viability, T/C [3]: 93.5%
- viability, T/C [4]: 103%
- viability, T/C [5]: 101%
- viability, T/C [6]: 113%
- viability, T/C [7]: 116%
- viability, T/C [8]: 97%
- viability, T/C [9]: 95.6%
- viability, T/C [10]: 83.2%
- viability, T/C [11]: 102%
- viability, T/C [12]: 111%
- viability, T/C [13]: 102%
- viability, T/C [14]: 107%
- viability, T/C [15]: 101%
- viability, T/C [16]: 87.2%
- viability, T/C [17]: 98.4%
- viability, T/C [18]: 70.2%
- viability, T/C [19]: 93.3%
- viability, T/C [20]: 86.9%
- viability, T/C [21]: 123%
- viability, T/C [22]: 87.2%
- viability, T/C [23]: 111%
- viability, T/C [24]: 119%
- viability, T/C [25]: 88.1%
- viability, T/C [26]: 97.9%
- viability, T/C [27]: 81.9%
- viability, T/C [28]: 97.8%
- viability, T/C [29]: 100%
- viability, T/C [30]: 105%
- viability, T/C [31]: 92.8%
- viability, T/C [32]: 94.8%
- viability, T/C [33]: 99.5%
- viability, T/C [34]: 91%
- viability, T/C [35]: 87%
- viability, T/C [36]: 131%
